Assay results published in publication PMC12856970 (Clinical Pharmacology in Drug Development, 2025).
“Also recorded” adds a separate entry of the source. Like-named read-outs stand apart in the source and are kept apart here.

Tests used:
[1] = Phase 1 DDI study: safety and tolerability (AEs, ECG); type: in vivo, human (healthy participants); conditions: asciminib 80 mg QD multiple doses alone or with atorvastatin 20 mg
OATP1B1 = conditions: in vitro; cited from earlier work
P‐gp = conditions: in vitro; cited from earlier work
OATP1B3 = conditions: in vitro; cited from earlier work
BCRP = conditions: in vitro; cited from earlier work
[2] = cited from earlier work
[3] = Phase 1 DDI study: asciminib plasma trough concentration (Ctrough); type: in vivo, human (healthy participants); conditions: asciminib 80 mg QD (i.e. on day 8)
OATP1B [4] = tested on: OATP1B; parameters: method as in data on file; conditions: single asciminib dose of 200 mg; ref data on file; cited from earlier work
OATP1B [5] = assay: Phase 1 DDI study: plasma CP-1 AUC0-24 as endogenous biomarker of OATP1B, without or with steady-state asciminib; conditions: for AUC0‐24, Adjusted Gmean: linear mixed-effects model
OATP = tested on: OATP; parameters: method as in PMID 27317801; conditions: after a single dose of rifampicin, healthy participants; cited from earlier work
CYP3A4 [6] = conditions: midazolam with asciminib 200 mg BID; cited from earlier work
CYP3A4 [7] = conditions: midazolam single dose co-administered with asciminib 40 mg BID at steady state vs alone; cited from earlier work
[8] = parameters: method as in PMID 30580575; conditions: monotherapies; cited from earlier work
[9] = Phase 1 DDI study: plasma PK of atorvastatin and its metabolites after atorvastatin alone or with steady-state asciminib (LC-MS/MS, non-compartmental); conditions: for AUCinf, Gmean (GCV%) / AUCinf, Mean (SD) / AUCinf, Median (min, max) / AUClast, Gmean (GCV%) / AUClast, Mean (SD) / AUClast, Median (min, max) / Cmax, Gmean (GCV%) / Cmax, Mean (SD) / Cmax, Median (min, max) / T1/2, Gmean (GCV%) / T1/2, Mean (SD) / T1/2, Median (min, max) / Tmax, Median (min, max): plasma; for AUCinf, Adjusted Gmean / AUClast, Adjusted Gmean / Cmax, Adjusted Gmean: linear mixed-effects model, back-transformed; for AUCinf Gmean ratio / AUClast Gmean ratio / Cmax Gmean ratio: atorvastatin + asciminib/atorvastatin; for Effect of asciminib on Cmax, AUClast and AUCinf (in words): atorvastatin + steady-state asciminib versus atorvastatin alone
[10] = steady state, 40 mg BID regimen
[11] = atorvastatin 20 mg single dose + asciminib 80 mg QD at steady state (day 9)
[12] = atorvastatin 20 mg single oral dose alone (day 1)
[13] = atorvastatin + asciminib 80 mg QD steady state
[14] = atorvastatin + asciminib at steady state

## O=C(Nc1ccc(OC(F)(F)Cl)cc1)c1cnc(N2CC[C@@H](O)C2)c(-c2ccn[nH]2)c1 [asciminib, Asciminib]
[1]
  Tolerability (in words): well tolerated
OATP1B1
  Inhibition of OATP1B1 (in words): could inhibit; also recorded: can inhibit
P‐gp
  Inhibition of P‐gp (in words): could inhibit; also recorded: can inhibit
OATP1B3
  Inhibition of OATP1B3 (in words): could inhibit; also recorded: can inhibit
BCRP
  Inhibition of BCRP (in words): could inhibit; also recorded: can inhibit
[2]
  Time of dosing to reach steady-state levels: ≤ 3 days
[2]; [10]
  AUC0‐12, Gmean: 5262 ng x h/mL
  Cmax, Gmean: 793 ng/mL
[2]; steady state, 80 mg QD regimen
  Cmax, Gmean: 1781 ng/mL
[3]
  Time of dosing until steady state was attained: 3 days
OATP1B [4]
  DDI effect on CP‐1 (in words): no DDI effect

## coproporphyrin‐1 [CP‐1]
OATP1B [5]; atorvastatin + asciminib/atorvastatin
  AUC0‐24 Gmean ratio: 1.02
OATP1B [5]; steady-state asciminib 80 mg QD
  Effect of asciminib on CP‐1 plasma concentrations (in words): not affected; also recorded: remained unaffected
OATP1B [5]; treatment 'Atorvastatin + asciminib' (steady-state asciminib)
  AUC0‐24, Adjusted Gmean: 12,500 pg x h/mL
OATP1B [5]; treatment 'Atorvastatin' (without asciminib)
  AUC0‐24, Adjusted Gmean: 12,300 pg x h/mL
OATP1B [5]; with asciminib 80 mg QD, day 8, plasma
  AUC0‐24, Gmean (GCV%): 12,600 pg x h/mL
OATP1B [5]; without asciminib, day 4, plasma
  AUC0‐24, Gmean (GCV%): 12,300 pg x h/mL
OATP
  Increase in Cmax: 5.7 fold

## Cc1ncc2n1-c1ccc(Cl)cc1C(c1ccccc1F)=NC2 [midazolam]
CYP3A4 [6]
  Increase in AUCinf (PBPK prediction): 88%
  Increase in Cmax (PBPK prediction): 58%
CYP3A4 [7]
  Increase in AUCinf: 28%
  Increase in AUClast: 27%
  Increase in Cmax: 11%

## CC(C)c1c(C(=O)Nc2ccccc2)c(-c2ccccc2)c(-c2ccc(F)cc2)n1CC[C@@H](O)C[C@@H](O)CC(=O)O [Atorvastatin]
[8]
  Rate of hospitalization due to rhabdomyolysis: 0.44 per 10,000 patient‐years

## CC(C)c1c(C(=O)Nc2ccccc2O)c(-c2ccccc2)c(-c2ccc(F)cc2)n1CC[C@@H](O)C[C@@H](O)CC(=O)O [o‐Hydroxy‐atorvastatin, o‐hydroxy‐atorvastatin]
[9]; [11]
  AUCinf, Gmean (GCV%): 41.7 (34.9) ng x h/mL
  AUCinf, Mean (SD): 44.1 (15.5) ng x h/mL
  AUCinf, Median (min, max): 42.8 (23.6, 81.7) ng x h/mL
  AUClast, Gmean (GCV%): 39.2 (36.8) ng x h/mL
  AUClast, Mean (SD): 41.7 (15.4) ng x h/mL
  AUClast, Median (min, max): 40.1 (21.4, 79.2) ng x h/mL
  Cmax, Gmean (GCV%): 3.98 (45.4) ng/mL
  Cmax, Mean (SD): 4.27 (2.11) ng/mL
  Cmax, Median (min, max): 3.88 (1.56, 11.3) ng/mL
  T1/2, Gmean (GCV%): 11.7 (28.4) h
  T1/2, Mean (SD): 12.2 (3.43) h
  T1/2, Median (min, max): 12.2 (7.33, 21.2) h
  Tmax, Median (min, max): 1.50 (0.50, 6.00) h
[9]; [12]
  AUCinf, Gmean (GCV%): 41.2 (34.7) ng x h/mL
  AUCinf, Mean (SD): 43.4 (14.3) ng x h/mL
  AUCinf, Median (min, max): 44.1 (23.1, 77.7) ng x h/mL
  AUClast, Gmean (GCV%): 37.0 (42.2) ng x h/mL
  AUClast, Mean (SD): 39.8 (15.0) ng x h/mL
  AUClast, Median (min, max): 41.6 (15.2, 75.8) ng x h/mL
  Cmax, Gmean (GCV%): 3.66 (56.9) ng/mL
  Cmax, Mean (SD): 4.14 (1.98) ng/mL
  Cmax, Median (min, max): 4.04 (1.42, 8.11) ng/mL
  T1/2, Gmean (GCV%): 9.64 (28.0) h
  T1/2, Mean (SD): 10.0 (2.95) h
  T1/2, Median (min, max): 9.67 (5.12, 19.9) h
  Tmax, Median (min, max): 2.00 (0.50, 5.00) h
[9]; [13]
  AUCinf, Adjusted Gmean: 41.7 ng x h/mL
  AUClast, Adjusted Gmean: 39.4 ng x h/mL
  Cmax, Adjusted Gmean: 3.95 ng/mL
[9]; [14]
  Time post-dose at which mean Cmax was observed (mean concentration-time profile): 2 h
[9]
  AUCinf Gmean ratio: 1.02
  AUClast Gmean ratio: 1.07
  Cmax Gmean ratio: 1.08
  Effect of asciminib on Cmax, AUClast and AUCinf (in words): did not affect; also recorded: comparable between treatments; also recorded: negligible
[9]; atorvastatin alone
  Time post-dose at which mean Cmax was observed (mean concentration-time profile): 2 h
  AUCinf, Adjusted Gmean: 40.7 ng x h/mL
  AUClast, Adjusted Gmean: 37.0 ng x h/mL
  Cmax, Adjusted Gmean: 3.66 ng/mL

## CC(C)c1c(C(=O)Nc2ccc(O)cc2)c(-c2ccccc2)c(-c2ccc(F)cc2)n1CC[C@@H](O)C[C@@H](O)CC(=O)O [p‐Hydroxy‐atorvastatin, p‐hydroxy‐atorvastatin]
[9]; [11]
  AUCinf, Gmean (GCV%): 6.2 (95.2) ng x h/mL
  AUCinf, Mean (SD): 7.67 (4.91) ng x h/mL
  AUCinf, Median (min, max): 6.63 (1.50, 15.7) ng x h/mL
  AUClast, Gmean (GCV%): 2.9 (87.7) ng x h/mL
  AUClast, Mean (SD): 3.83 (3.28) ng x h/mL
  AUClast, Median (min, max): 2.99 (0.717, 13.6) ng x h/mL
  Cmax, Gmean (GCV%): 0.16 (48.0) ng/mL
  Cmax, Mean (SD): 0.171 (0.0880) ng/mL
  Cmax, Median (min, max): 0.145 (0.0699, 0.425) ng/mL
  T1/2, Gmean (GCV%): 22.8 (58.5) h
  T1/2, Mean (SD): 25.3 (10.9) h
  T1/2, Median (min, max): 26.0 (8.45, 40.9) h
  Tmax, Median (min, max): 10.00 (1.00, 12.00) h
[9]; atorvastatin 20 mg single dose + asciminib 80 mg QD at steady state (day 9), listed as p‐hydroxy‐atorvastatin
  Tmax, Median (min, max): approximately 10 h
[9]; [12]
  AUCinf, Gmean (GCV%): 7.4 (53.2) ng x h/mL
  AUCinf, Mean (SD): 8.16 (4.48) ng x h/mL
  AUCinf, Median (min, max): 6.60 (4.86, 14.6) ng x h/mL
  AUClast, Gmean (GCV%): 3.1 (69.8) ng x h/mL
  AUClast, Mean (SD): 3.73 (2.75) ng x h/mL
  AUClast, Median (min, max): 2.56 (0.964, 12.5) ng x h/mL
  Cmax, Gmean (GCV%): 0.17 (53.8) ng/mL
  Cmax, Mean (SD): 0.189 (0.112) ng/mL
  Cmax, Median (min, max): 0.144 (0.0793, 0.468) ng/mL
  T1/2, Gmean (GCV%): 30.4 (24.6) h
  T1/2, Mean (SD): 31.1 (7.50) h
  T1/2, Median (min, max): 30.4 (24.3, 39.3) h
  Tmax, Median (min, max): 10.00 (1.50, 12.01) h
[9]; atorvastatin 20 mg single oral dose alone (day 1), listed as p‐hydroxy‐atorvastatin
  Tmax, Median (min, max): approximately 10 h
[9]; [13]
  AUCinf, Adjusted Gmean: 5.92 ng x h/mL
  AUClast, Adjusted Gmean: 2.89 ng x h/mL
  Cmax, Adjusted Gmean: 0.156 ng/mL
[9]; [14]
  Time post-dose at which mean Cmax was observed (mean concentration-time profile): 10 h
[9]
  AUCinf Gmean ratio: 0.74
  AUClast Gmean ratio: 0.98
  Cmax Gmean ratio: 0.98
  Effect of asciminib on Cmax, AUClast and AUCinf (in words): did not affect; also recorded: negligible
[9]; atorvastatin alone
  Time post-dose at which mean Cmax was observed (mean concentration-time profile): 10 h
  AUCinf, Adjusted Gmean: 8.04 ng x h/mL
  AUClast, Adjusted Gmean: 2.96 ng x h/mL
  Cmax, Adjusted Gmean: 0.160 ng/mL

## CC[C@H](C)C(=O)O[C@H]1C[C@H](O)C=C2C=C[C@H](C)[C@H](CC[C@@H](O)C[C@@H](O)CC(=O)O)[C@H]21 [pravastatin]
[8]
  Rate of hospitalization due to rhabdomyolysis: 0.44 per 10,000 patient‐years
